Assay results as given in PMC10726475, “Atypical N-Alkyl to N-Noralkoxy Switch in a Dual cSRC/BCR-ABL1 Kinase Inhibitor Improves Drug Efflux and hERG Affinity” (ACS Medicinal Chemistry Letters, 2023).
Values after ≈ are worked out from the molar mass of the structure shown. Read-outs that look alike come from different tables or passages of the source. Each block holds one molecule with its values, some of them ahead of it.

Experiments:
[1] = logD7.4 by shake-flask method; format: physicochemical; conditions: pH 7.4
[2] = Solubility in aqueous buffer at pH 7.4; format: physicochemical; conditions: aqueous buffer at pH 7.4, n = 1; read-out: aq sol.
[3] = Plasma protein binding by equilibrium dialysis, human; format: in vitro ADME; conditions: for fraction unbound at 5 μM: read-out: %Bound (converted)
[4] = Plasma protein binding by equilibrium dialysis, rat; format: in vitro ADME; conditions: for fu, plasma % / %Unbound: 5 μM, equilibrium dialysis; for fraction unbound at 5 μM: read-out: fu, plasma % / %Unbound (converted)
[5] = Metabolic stability in human liver microsomes; format: in vitro ADME
[6] = Metabolic stability in rat liver microsomes; format: in vitro ADME
[7] = Metabolic stability in human hepatocytes; format: in vitro ADME
[8] = Metabolic stability in rat hepatocytes; format: in vitro ADME
Molt-4 cells = experiment: Cell viability assay (CellTiter-Glo), Molt-4; format: cell-based, human; conditions: Homo sapiens, MOLT-4; BCR-ABL1 negative; read-out: IC50, Molt-4
[9] = set-up: method as in NDA application no. 203341 Pharmacology Review(s) page 40; conditions: nude mice, 50 mg/kg po and 5 mg/kg iv dosing, ref NDA application no. 203341 Pharmacology Review(s) page 40; cited from earlier work
P-gp (MDR1) = experiment: in vitro; conditions: dog, MDCK-MDR1
Caco-2 cells = experiment: Caco-2 cell permeability
MDCKII-MDR1 cells [10] = experiment: MDCKII-MDR1 cell permeability
MDCKII-MDR1 cells [11] = conditions: dog, MDCK-MDR1
in vitro = conditions: human, Caco-2
[12] = Plasma protein binding by equilibrium dialysis, mouse; format: in vitro ADME
[13] = relative to simple tertiary amine 19, δ-position substituent; cited from earlier work

SMILES: COc1cc(Nc2c(C#N)cnc3cc(OCCCN4CCN(C)CC4)c(OC)cc23)c(Cl)cc1Cl [bosutinib]
logD at 2 h [1]: 3.1
solubility [2]: 14 µM (≈ 7.43 µg/mL)
fu, plasma % / %Unbound ([3]; 5 μM, equilibrium dialysis): 4.53%
recovery ([3]; both sexes): 94%
fraction unbound at 6 h, 5 µM ([3]; both sexes, 5 μM, equilibrium dialysis, read-out: fu, plasma % / %Unbound): 0.045
fraction unbound at 5 μM ([3]; both sexes): 0.0453
fu, plasma % / %Unbound [4]: 7.2%
fu, plasma % / %Unbound ([4]; listed as Bosutinib): 7.20%
recovery ([4]; both sexes, SD): 91.1%
remaining at 6 h, 5 μM ([4]; both sexes, SD): 90.7%
fraction unbound at 5 μM ([4]; both sexes, SD): 0.072
Remaining Percentage, 0.5 min ([5]; +Cofactors): 100.00%
Remaining Percentage, 15 min ([5]; +Cofactors): 12.40%
Remaining Percentage, 30 min ([5]; +Cofactors): 2.94%
Remaining Percentage, 45 min ([5]; +Cofactors): 1.16%
Remaining Percentage, 60 min ([5]; +Cofactors): BLOD
Remaining Percentage, 0.5 min ([5]; -Cofactors): 100.00%
Remaining Percentage, 60 min ([5]; -Cofactors): 91.23%
half-life at 1 h ([5]; both sexes, pooled): 4.8 min
microsomal CLint at 1 h ([5]; both sexes, pooled, read-out: LMClint): 288 µL/min/mg
Remaining Percentage, 0.5 min ([6]; +Cofactors): 100.00%
Remaining Percentage, 15 min ([6]; +Cofactors): 14.79%
Remaining Percentage, 30 min ([6]; +Cofactors): 5.02%
Remaining Percentage, 45 min ([6]; +Cofactors): 2.62%
Remaining Percentage, 0.5 min ([6]; -Cofactors): 100.00%
half-life at 1 h ([6]; male, SD, pooled): 5.3 min
microsomal CLint at 1 h ([6]; male, SD, pooled, read-out: LMClint): 264 µL/min/mg
Remaining Percentages, 0.5 min [7]: 100.00%
Remaining Percentages, 15 min [7]: 73.99%
Remaining Percentages, 30 min [7]: 79.28%
Remaining Percentages, 60 min [7]: 53.95%
Remaining Percentages, 90 min [7]: 34.15%
Remaining Percentages, 120 min [7]: 20.73%
half-life at 2 h ([7]; both sexes): 54.9 min
hepatocyte CLint at 2 h ([7]; both sexes): 25.3 µL/min/1e6 cells
Remaining Percentages, 0.5 min [8]: 100.00%
Remaining Percentages, 15 min [8]: 50.17%
Remaining Percentages, 30 min [8]: 21.78%
Remaining Percentages, 60 min [8]: 5.83%
Remaining Percentages, 90 min [8]: 1.83%
Remaining Percentages, 120 min [8]: 0.73%
half-life at 2 h ([8]; male, SD): 13.4 min
hepatocyte CLint at 2 h ([8]; male, SD): 103 µL/min/1e6 cells
IC50 (Molt-4 cells): > 2000 nM
AUCinf [9]: 11 677 h·nM
Cmax [9]: 1510 nM
recovery (P-gp (MDR1)): 56%
Recovery% (BL-AP) (Caco-2 cells): 70.73%
Recovery% (BL-AP) (MDCKII-MDR1 cells [10]): 65.52%

SMILES: CN(N=O)C(=O)N[C@H]1C(O)O[C@H](CO)[C@@H](O)[C@@H]1O (mixture of isomers) [Streptozotocin]
Count (# of wells) (Salmonella strain TA98; TA98+S9, 2.5E-06 M): 6
Positive Significance (- to +++) (Salmonella strain TA98; TA98+S9, 2.5E-06 M): + (weak positive, if P < 0.05)
Count (# of wells) (Salmonella strain TA98; TA98-S9, 2.5E-06 M): 1
Positive Significance (- to +++) (Salmonella strain TA98; TA98-S9, 2.5E-06 M): -
Count (# of wells) (Salmonella strain TA100; TA100+S9, 2.5E-06 M): 19
Count (# of wells) (Salmonella strain TA100; TA100-S9, 2.5E-06 M): 39
Count (# of wells) (Salmonella strain TA1535; TA1535+S9, 2.5E-06 M): 48
Count (# of wells) (Salmonella strain TA1535; TA1535-S9, 2.5E-06 M): 46
Count (# of wells) (Salmonella strain TA1537; TA1537+S9, 2.5E-06 M): 0
Positive Significance (- to +++) (Salmonella strain TA1537; TA1537+S9, 2.5E-06 M): -
Count (# of wells) (Salmonella strain TA1537; TA1537-S9, 2.5E-06 M): 1
Positive Significance (- to +++) (Salmonella strain TA1537; TA1537-S9, 2.5E-06 M): -

Recovery% (BL-AP) (MDCKII-MDR1 cells [11]): 96.11%
Papp A→B at 2 h, 5 μM (in vitro): 23.1 ×10⁻⁶ cm/s
Papp B→A at 2 h, 5 μM (in vitro): 21.8 ×10⁻⁶ cm/s
efflux ratio at 2 h, 5 μM (in vitro): 0.95
recovery (in vitro): 106%
Papp A→B at 2 h, 1 μM (P-gp (MDR1)): 27.9 ×10⁻⁶ cm/s
Papp B→A at 2 h, 1 μM (P-gp (MDR1)): 31 ×10⁻⁶ cm/s
efflux ratio at 2 h, 1 μM (P-gp (MDR1)): 1.11
recovery (P-gp (MDR1)): 99.9%
Recovery% (BL-AP) (Caco-2 cells): 100.41%
SMILES: COCCc1ccc(OCC(O)CNC(C)C)cc1 (stereo not drawn) [Metoprolol]

SMILES: Nc1c2ccccc2nc2ccccc12 [9-Aminoacridine]
Count (# of wells) (Salmonella strain TA98; TA98+S9, 1.0E-05 M): 1
Positive Significance (- to +++) (Salmonella strain TA98; TA98+S9, 1.0E-05 M): -
Count (# of wells) (Salmonella strain TA98; TA98-S9, 1.0E-05 M): 2
Positive Significance (- to +++) (Salmonella strain TA98; TA98-S9, 1.0E-05 M): -
Count (# of wells) (Salmonella strain TA100; TA100+S9, 1.0E-05 M): 2
Positive Significance (- to +++) (Salmonella strain TA100; TA100+S9, 1.0E-05 M): -
Count (# of wells) (Salmonella strain TA100; TA100-S9, 1.0E-05 M): 0
Positive Significance (- to +++) (Salmonella strain TA100; TA100-S9, 1.0E-05 M): -
Count (# of wells) (Salmonella strain TA1535; TA1535+S9, 1.0E-05 M): 1
Positive Significance (- to +++) (Salmonella strain TA1535; TA1535+S9, 1.0E-05 M): -
Count (# of wells) (Salmonella strain TA1535; TA1535-S9, 1.0E-05 M): 0
Positive Significance (- to +++) (Salmonella strain TA1535; TA1535-S9, 1.0E-05 M): -
Count (# of wells) (Salmonella strain TA1537; TA1537+S9, 1.0E-05 M): 31
Count (# of wells) (Salmonella strain TA1537; TA1537-S9, 1.0E-05 M): 25

SMILES: Nc1ccc2cc3ccccc3cc2c1 [2-Aminoanthracene]
Count (# of wells) (Salmonella strain TA98; TA98+S9, 2.0E-06 M): 48
Count (# of wells) (Salmonella strain TA98; TA98-S9, 1.0E-06 M): 1
Positive Significance (- to +++) (Salmonella strain TA98; TA98-S9, 1.0E-06 M): -
Count (# of wells) (Salmonella strain TA100; TA100+S9, 1.0E-06 M): 17
Positive Significance (- to +++) (Salmonella strain TA100; TA100+S9, 1.0E-06 M): ++ (strong positive, if P < 0.01)
Count (# of wells) (Salmonella strain TA100; TA100-S9, 1.0E-06 M): 2
Positive Significance (- to +++) (Salmonella strain TA100; TA100-S9, 1.0E-06 M): -
Count (# of wells) (Salmonella strain TA1535; TA1535+S9, 1.0E-06 M): 12
Count (# of wells) (Salmonella strain TA1535; TA1535-S9, 1.0E-06 M): 0
Positive Significance (- to +++) (Salmonella strain TA1535; TA1535-S9, 1.0E-06 M): -
Count (# of wells) (Salmonella strain TA1537; TA1537+S9, 2.0E-06 M): 11
Positive Significance (- to +++) (Salmonella strain TA1537; TA1537+S9, 2.0E-06 M): ++ (strong positive, if P < 0.01)
Count (# of wells) (Salmonella strain TA1537; TA1537-S9, 1.0E-06 M): 0
Positive Significance (- to +++) (Salmonella strain TA1537; TA1537-S9, 1.0E-06 M): -

fu, plasma % / %Unbound ([3]; 5 μM, equilibrium dialysis): 0.82%
recovery ([3]; both sexes): 98.6%
remaining at 6 h, 5 μM ([3]; both sexes): 102%
fraction unbound at 5 μM ([3]; both sexes): 0.0082
fu, plasma % / %Unbound [4]: 0.67%
recovery ([4]; both sexes, SD): 103%
fraction unbound at 5 μM ([4]; both sexes, SD): 0.0067
%Bound [12]: 99.42%
recovery ([12]; both sexes, CD-1): 96.8%
remaining at 6 h, 5 μM ([12]; both sexes, CD-1): 96.3%
fraction unbound at 5 μM ([12]; both sexes, CD-1, 5 μM, equilibrium dialysis, read-out: fu, plasma % / %Unbound): 0.0058
SMILES: CC(=O)N1CCN(c2ccc(OCC3COC(Cn4ccnc4)(c4ccc(Cl)cc4Cl)O3)cc2)CC1 (stereo not drawn) [Ketoconazole]

SMILES: COCCCN(C)C [compound 20]
ΔpKa [13]: −0.8
